Key:
hERG channel = tested on: hERG channel; design: method as in PMID 26181715; settings: cited from earlier work
[1] = Metabolic stability in human liver microsomes; format: in vitro ADME; settings: both sexes, pH 7.4, 1 mg/mL, read-out: Microsomal Stability (% Remaining at 30 min)
Protocol: All measurements were done in duplicate. Pooled mixed gender human donor microsomes, male beagle dog microsomes and male cynomolgus monkey were obtained from BioIVT (Baltimore, MD). […] A mixture containing 50 mM potassium phosphate buffer pH 7.4 and 1 mg/mL liver microsomes was pre-warmed for 10 min at 37°C in a shaking water bath, followed by the addition of test compound. Final DMSO concentration in the reaction mix was 0.1%. […] The final volume of the reaction mixture was 800 μL, containing 1 mg/mL liver microsomes, and 1 μM test compound. Aliquots (100 μL) of reaction mixtures were removed from the incubation plate at pre-defined timepoints and mixed with 150 μL of ice-cold acetonitrile, incubated on ice for 15 min, and samples were centrifuged (3,600 rpm, 10 min, 4°C) to precipitate protein. The supernatants were diluted 1:1 (v/v) with water containing the internal standard and subjected to the LC/MS analysis.

[2] = design: method as in PMID 26181715; settings: human liver microsomes; cited from earlier work

## Cc1cc(C(=O)O)nc(N2C[C@H]3C[C@@H](c4ccccc4C(F)(F)F)C[C@H]3C2)n1 [BPN-14136]
hERG channel
  off-target activity at the hERG channel: no significant off-target activity
[1]
  remaining at 0.5 h, 1 μM: 94%
[2]
  stability in liver microsomes, % remaining at 30 min: > 90%

— article PMC6980506, “Comparative pharmacokinetics and pharmacodynamics of the advanced Retinol-Binding Protein 4 antagonist in dog and cynomolgus monkey” (PLoS ONE, 2020)
